Values after ≈ are worked out from the molar mass of the structure shown.
Assays:
[1] = cited from earlier work
[2] = human, in vivo
Description: Patients were selected from volunteers aged 18 to 65 years, inclusive, with a Body Mass Index (BMI) between […] inclusive and free from any significant diseases including cardiac, renal and gastrointestinal disease. […] The crossover design eliminated potential treatment effects on the outcome, as well as effectively allowing the subject to serve as their own control. Each dosing occasion was separated by a 7-14 day washout period. Fasting conditions represented an overnight fast of at least 10 hours and fed state was after a high calorie, high fat breakfast 30 minutes prior to dosing.
The % EMT was quantified from human plasma according to methods based on the FDA Bioanalytical Method Validation Guide for Industry and the EMA Guideline on bioanalytical method validation (York Bioanalytical Solutions). Briefly, plasma samples were submitted to supported liquid extraction and liquid chromatography with tandem mass spectrometric detection (lower limit of quantification 5.00 ng/ml with a sample aliquot volume of 100 microliters). The analytes detected were esomeprazole, 5-hydroxyomeprazole, and omeprazole sulphone and were validated against commercial samples and calibration standards. […] Calibration samples were obtained commercially as follows: esomeprazole (Sigma-Aldrich), 5-hydroxyomeprazole, and omeprazole sulphone (Toronto Chemicals Inc.). Internal standards omeprazole d3, 5-hydroxyomeprazole d3 and omeprazole sulphone-d3 were also utilized (Toronto Chemicals Inc.). Plasma samples were stored at −20° C. Data was collected using Analyst software (Applied Biosystems-Sciex) in combination with Watson LIMS (Thermo Fisher Scientific); peak area ratios were used to generate calibration curves using regression functions.

[3] = as the magnesium trihydrate, cited from earlier work

COc1ccc2nc([S@@+]([O-])Cc3ncc(C)c(OC)c3C)[nH]c2c1 [Esomeprazole]
stability in acid conditions ([1]; acid conditions): degrades
stability at pH 6.8 ([1]; pH 6.8): stable
Intra-subject Coefficient of Variation of AUCinf [2]: 40.85 CV %
Intra-subject Coefficient of Variation of AUCt [2]: 83.08 CV %
Intra-subject Coefficient of Variation of Cmax [2]: 97.51 CV %
solubility in heptane [3]: insoluble
solubility in water ([3]; in water at 25° C.): 1.5 mg/mL (≈ 4.34 mM)
